From patent US11919901B2 (Syndax Pharmaceuticals, Inc., priority 2021, dated 2024)

Experiments:
hERG = hERG (Homo sapiens (Human), UniProt Q12809); assay: Patch clamp assay (hERG tail currents, whole-cell); type: cell-based; details: hERG transfected HEK 293 cells; for hERG % Remaining 30 μM: 30 μM compound; for hERG % Remaining 10 μM: 10 μM compound
Description: The 35 mm culture dishes upon which cells were seeded at a density allowing single cells to be recorded were placed on the dish holder of the microscope and continuously perfused (at approximately 1 mL/min) with the bath solution described in section 4.6. All solutions applied to cells including the pipette solution were maintained at room temperature (19° C. to 30° C.). After formation of a Gigaohm seal between the patch electrodes and individual hERG stably transfected HEK 293 cells (pipette resistance range: 2.0 MΩ2 to 7.0 MΩ; seal resistance range: >1GΩ) the cell membrane across the pipette tip was ruptured to assure electrical access to the cell interior (whole-cell patch-configuration). In case the quality of the seal was poor, the process of seal formation was repeated with a different cell and a new pipette. As soon as a stable seal could be established, hERG outward tail currents were measured upon depolarization of the cell membrane to +20 mV for 2s (activation of channels) from a holding potential of −80 mV and upon subsequent repolarization to −40 mV for 3 s. This voltage protocol (as shown below) was run at least 10 times at intervals of 10 s. If current density was judged to be too low for measurement, another cell was recorded.
During wash-in of the test item the voltage protocol indicated above was run continuously again at 10 s intervals until the steady-state level of block was reached.
The IC50 was determined by fitting the dose response curve with a 2-parameter logistic function (amax=100%).

Menin-MLL = Menin-MLL (Homo sapiens (Human), UniProt O00255); assay: Determination of binding constants (Ki) to Menin-MLL (HTRF); details: HTRF, 0.25 nM H-FL-Menin, 3.2 nM FITC-MLL-4-43, 24 hr incubation; for Ki: read-out: Menin-MLL Ki HTRF Assay: Ki
Sequence of Menin-MLL (O00255 whole entry): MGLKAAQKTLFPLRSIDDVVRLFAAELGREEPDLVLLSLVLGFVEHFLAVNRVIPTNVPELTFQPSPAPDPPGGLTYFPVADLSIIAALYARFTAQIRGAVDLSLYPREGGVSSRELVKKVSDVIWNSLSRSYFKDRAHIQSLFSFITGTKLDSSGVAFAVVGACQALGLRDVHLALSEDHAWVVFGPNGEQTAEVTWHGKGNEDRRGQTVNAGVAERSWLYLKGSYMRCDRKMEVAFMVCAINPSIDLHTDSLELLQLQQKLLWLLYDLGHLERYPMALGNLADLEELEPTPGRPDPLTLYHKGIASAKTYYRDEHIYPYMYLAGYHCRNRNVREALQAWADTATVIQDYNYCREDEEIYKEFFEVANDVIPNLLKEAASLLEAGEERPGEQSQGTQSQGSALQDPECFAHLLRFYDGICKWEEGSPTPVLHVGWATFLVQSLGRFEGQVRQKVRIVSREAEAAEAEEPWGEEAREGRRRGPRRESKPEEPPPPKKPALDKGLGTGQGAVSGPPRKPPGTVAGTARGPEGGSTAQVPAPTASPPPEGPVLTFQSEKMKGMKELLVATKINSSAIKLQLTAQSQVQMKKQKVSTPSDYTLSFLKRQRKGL

Sequence of hERG (Q12809 whole entry): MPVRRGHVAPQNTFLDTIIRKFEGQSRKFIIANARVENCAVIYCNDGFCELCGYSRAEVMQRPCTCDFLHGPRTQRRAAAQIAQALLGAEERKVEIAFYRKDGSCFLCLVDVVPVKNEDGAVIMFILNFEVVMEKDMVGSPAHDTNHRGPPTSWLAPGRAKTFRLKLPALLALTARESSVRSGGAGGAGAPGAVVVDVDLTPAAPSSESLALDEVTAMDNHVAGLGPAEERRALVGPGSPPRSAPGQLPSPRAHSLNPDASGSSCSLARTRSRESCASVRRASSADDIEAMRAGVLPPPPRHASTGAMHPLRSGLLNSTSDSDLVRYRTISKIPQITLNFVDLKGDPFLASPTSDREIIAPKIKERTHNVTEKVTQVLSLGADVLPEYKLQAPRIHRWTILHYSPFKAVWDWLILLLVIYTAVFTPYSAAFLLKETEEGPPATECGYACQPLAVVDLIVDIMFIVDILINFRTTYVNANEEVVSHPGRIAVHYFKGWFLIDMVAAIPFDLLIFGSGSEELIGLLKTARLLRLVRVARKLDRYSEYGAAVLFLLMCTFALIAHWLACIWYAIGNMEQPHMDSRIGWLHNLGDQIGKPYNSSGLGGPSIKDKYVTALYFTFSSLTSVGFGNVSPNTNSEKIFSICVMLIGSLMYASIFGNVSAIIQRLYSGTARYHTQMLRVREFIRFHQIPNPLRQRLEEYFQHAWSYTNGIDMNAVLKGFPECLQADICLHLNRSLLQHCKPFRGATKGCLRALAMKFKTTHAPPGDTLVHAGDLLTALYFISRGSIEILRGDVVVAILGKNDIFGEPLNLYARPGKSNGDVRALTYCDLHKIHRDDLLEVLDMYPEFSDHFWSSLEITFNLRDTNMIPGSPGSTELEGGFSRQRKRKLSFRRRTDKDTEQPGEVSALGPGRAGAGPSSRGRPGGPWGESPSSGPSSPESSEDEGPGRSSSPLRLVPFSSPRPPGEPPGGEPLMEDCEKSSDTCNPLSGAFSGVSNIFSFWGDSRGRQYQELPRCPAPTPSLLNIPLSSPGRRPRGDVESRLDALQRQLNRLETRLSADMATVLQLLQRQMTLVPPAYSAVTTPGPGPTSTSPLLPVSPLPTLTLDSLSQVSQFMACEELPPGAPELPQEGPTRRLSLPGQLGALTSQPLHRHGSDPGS

SMILES	hERG % Remaining 30 μM (hERG)	Ki (Menin-MLL) [nM]	hERG % Remaining 10 μM (hERG)	EC50 (Menin-MLL) [nM]	IC50 (hERG) [nM]	hERG % Remaining 1 μM (hERG; 1 μM compound)	hERG % Remaining 3 μM (hERG; 3 μM compound)	hERG % Remaining 100 μM (hERG; 100 μM compound)
CCN(C(=O)c1cc(F)ccc1Oc1cncnc1N1CC2(CCN(C[C@@H]3CC[C@@H](NS(=O)(=O)c4c[nH]c(=O)cc4C)CO3)CC2)C1)C(C)C [Compound 75, N-Ethyl-5-fluoro-N-isopropyl-2-((4-(7-(((2S,5R)-5-((4-methyl-6-oxo-1,6-dihydropyridine)-3-sulfonamido)tetrahydro-2H-pyran-2-yl)methyl)-2,7-diazaspiro[3.5]nonan-2-yl)pyrimidin-5-yl)oxy)benzamide]	+++ (“+++” means ≥66%)	< 1						
CCN(C(=O)c1cc(F)ccc1Oc1cncnc1N1CC2(CCN(C[C@@H]3CC[C@@H](NS(=O)(=O)NC)CO3)CC2)C1)C(C)C [Compound 76, N-Ethyl-5-fluoro-N-isopropyl-2-((4-(7-(((2S,5R)-5-((N-methylsulfamoyl)amino)tetrahydro-2H-pyran-2-yl)methyl)-2,7-diazaspiro[3.5]nonan-2-yl)pyrimidin-5-yl)oxy)benzamide]	+++ (“+++” means ≥66%)	< 1	+++ (“+++” means ≥66%)	< 50				
CC(C)N(C(=O)c1cc(F)ccc1Oc1cncnc1N1CC2(CCN(C[C@@H]3CC[C@@H](NS(=O)(=O)N4CCOCC4)CO3)CC2)C1)C(C)C [Compound 78, 5-Fluoro-N,N-diisopropyl-2-((4-(7-(((2S,5R)-5-(morpholine-4-sulfonamido)tetrahydro-2H-pyran-2-yl)methyl)-2,7-diazaspiro[3.5]nonan-2-yl)pyrimidin-5-yl)oxy)benzamide]	+++ (“+++” means ≥66%)	< 1	+++ (“+++” means ≥66%)	< 50				
Cc1ncc(S(=O)(=O)N[C@@H]2CC[C@@H](CN3CCC4(CC3)CN(c3ncncc3Oc3ccc(F)cc3C(=O)N(C(C)C)C(C)C)C4)OC2)o1 [Compound 80, 5-Fluoro-N,N-diisopropyl-2-((4-(7-(((2S,5R)-5-((2-methyloxazole)-5-sulfonamido)tetrahydro-2H-pyran-2-yl)methyl)-2,7-diazaspiro[3.5]nonan-2-yl)pyrimidin-5-yl)oxy)benzamide]	+ (“+” means <33%)	< 1	++ (“++” means ≥33% and <66%)					
Cc1nc(S(=O)(=O)N[C@@H]2CC[C@@H](CN3CCC4(CC3)CN(c3ncncc3Oc3ccc(F)cc3C(=O)N(C(C)C)C(C)C)C4)OC2)cs1 [Compound 81, 5-Fluoro-N,N-diisopropyl-2-((4-(7-(((2S,5R)-5-((2-methylthiazole)-4-sulfonamido)tetrahydro-2H-pyran-2-yl)methyl)-2,7-diazaspiro[3.5]nonan-2-yl)pyrimidin-5-yl)oxy)benzamide]	++ (“++” means ≥33% and <66%)	< 1	++ (“++” means ≥33% and <66%)					
CC(C)N(C(=O)c1cc(F)ccc1Oc1cncnc1N1CC2(CCN(C[C@@H]3CC[C@@H](NS(=O)(=O)c4cnn(C)c4Cl)CO3)CC2)C1)C(C)C [Compound 82, 2-((4-(7-(((2S,5R)-5-((5-Chloro-1-methyl-1H-pyrazole)-4-sulfonamido)tetrahydro-2H-pyran-2-yl)methyl)-2,7-diazaspiro[3.5]nonan-2-yl)pyrimidin-5-yl)oxy)-5-fluoro-N,N-diisopropylbenzamide]	+ (“+” means <33%)	< 1	++ (“++” means ≥33% and <66%)					
CC(C)N(C(=O)c1cc(F)ccc1Oc1cncnc1N1CC2(CCN(C[C@@H]3CC[C@@H](NS(=O)(=O)c4cnn(C5CC5)c4)CO3)CC2)C1)C(C)C [Compound 83, 2-((4-(7-(((2S,5R)-5-((1-Cyclopropyl-1H-pyrazole)-4-sulfonamido)tetrahydro-2H-pyran-2-yl)methyl)-2,7-diazaspiro[3.5]nonan-2-yl)pyrimidin-5-yl)oxy)-5-fluoro-N,N-diisopropylbenzamide]	++ (“++” means ≥33% and <66%)	< 1	+++ (“+++” means ≥66%)					
Cc1ncc(S(=O)(=O)N[C@@H]2CC[C@@H](CN3CCC4(CC3)CN(c3ncncc3Oc3ccc(F)cc3C(=O)N(C(C)C)C(C)C)C4)OC2)s1 [Compound 84, 5-Fluoro-N,N-diisopropyl-2-((4-(7-(((2S,5R)-5-((2-methylthiazole)-5-sulfonamido)tetrahydro-2H-pyran-2-yl)methyl)-2,7-diazaspiro[3.5]nonan-2-yl)pyrimidin-5-yl)oxy)benzamide]	+ (“+” means <33%)	< 1	++ (“++” means ≥33% and <66%)					
CC(C)N(C(=O)c1cc(F)ccc1Oc1cncnc1N1CC2(CCN(C[C@@H]3CC[C@@H](NS(=O)(=O)c4cnn(C(F)F)c4)CO3)CC2)C1)C(C)C [Compound 85, 2-((4-(7-(((2S,5R)-5-((1-(Difluoromethyl)-1H-pyrazole)-4-sulfonamido)tetrahydro-2H-pyran-2-yl)methyl)-2,7-diazaspiro[3.5]nonan-2-yl)pyrimidin-5-yl)oxy)-5-fluoro-N,N-diisopropylbenzamide]	+ (“+” means <33%)	< 1	++ (“++” means ≥33% and <66%)					
CC(C)N(C(=O)c1cc(F)ccc1Oc1cncnc1N1CC2(CCN(C[C@@H]3CC[C@@H](NS(=O)(=O)c4cnn(C)c4)CO3)CC2)C1)C(C)C [Compound 86, 5-Fluoro-N,N-diisopropyl-2-((4-(7-(((2S,5R)-5-((1-methyl-1H-pyrazole)-4-sulfonamido)tetrahydro-2H-pyran-2-yl)methyl)-2,7-diazaspiro[3.5]nonan-2-yl)pyrimidin-5-yl)oxy)benzamide]	+++ (“+++” means ≥66%)	< 1	+++ (“+++” means ≥66%)		≥ 50000			
CC(C)N(C(=O)c1cc(F)ccc1Oc1cncnc1N1CC2(CCN(C[C@@H]3CC[C@@H](NS(=O)(=O)c4ccn(C)n4)CO3)CC2)C1)C(C)C [Compound 87, 5-Fluoro-N,N-diisopropyl-2-((4-(7-(((2S,5R)-5-((1-methyl-1H-pyrazole)-3-sulfonamido)tetrahydro-2H-pyran-2-yl)methyl)-2,7-diazaspiro[3.5]nonan-2-yl)pyrimidin-5-yl)oxy)benzamide]	+++ (“+++” means ≥66%)	< 1						
CC(C)N(C(=O)c1cc(F)ccc1Oc1cncnc1N1CC2(CCN(C[C@@H]3CC[C@@H](NS(=O)(=O)N4CCC4)CO3)CC2)C1)C(C)C [Compound 88, 2-((4-(7-(((2S,5R)-5-(Azetidine-1-sulfonamido)tetrahydro-2H-pyran-2-yl)methyl)-2,7-diazaspiro[3.5]nonan-2-yl)pyrimidin-5-yl)oxy)-5-fluoro-N,N-diisopropylbenzamide]	+++ (“+++” means ≥66%)	< 1						
CC(C)N(C(=O)c1cc(F)ccc1Oc1cncnc1N1CC2(CCN(C[C@@H]3CC[C@@H](NS(=O)(=O)N(C)C(C)C)CO3)CC2)C1)C(C)C [Compound 89, 5-Fluoro-N,N-diisopropyl-2-((4-(7-(((2S,5R)-5-((N-isopropyl-N-methylsulfamoyl)amino)tetrahydro-2H-pyran-2-yl)methyl)-2,7-diazaspiro[3.5]nonan-2-yl)pyrimidin-5-yl)oxy)benzamide]	++ (“++” means ≥33% and <66%)	< 1						
CC(C)N(C(=O)c1cc(F)ccc1Oc1cncnc1N1CC2(CCN(C[C@@H]3CC[C@@H](NS(N)(=O)=O)CO3)CC2)C1)C(C)C [Compound 90, 5-Fluoro-N,N-diisopropyl-2-((4-(7-(((2S,5R)-5-(sulfamoylamino)tetrahydro-2H-pyran-2-yl)methyl)-2,7-diazaspiro[3.5]nonan-2-yl)pyrimidin-5-yl)oxy)benzamide]	+++ (“+++” means ≥66%)	< 1	+++ (“+++” means ≥66%)					
Cc1nc(S(=O)(=O)N[C@@H]2CC[C@@H](CN3CCC4(CC3)CN(c3ncncc3Oc3ccc(F)cc3C(=O)N(C(C)C)C(C)C)C4)OC2)co1 [Compound 91, 5-Fluoro-N,N-diisopropyl-2-((4-(7-(((2S,5R)-5-((2-methyloxazole)-4-sulfonamido)tetrahydro-2H-pyran-2-yl)methyl)-2,7-diazaspiro[3.5]nonan-2-yl)pyrimidin-5-yl)oxy)benzamide]	++ (“++” means ≥33% and <66%)	< 1						
CC(C)N(C(=O)c1cc(F)ccc1Oc1cncnc1N1CC2(CCN(C[C@@H]3CC[C@@H](NS(=O)(=O)N(C)C)CO3)CC2)C1)C1CC1 [Compound 93, N-Cyclopropyl-2-((4-(7-(((2S,5R)-5-((N,N-dimethylsulfamoyl)amino)tetrahydro-2H-pyran-2-yl)methyl)-2,7-diazaspiro[3.5]nonan-2-yl)pyrimidin-5-yl)oxy)-5-fluoro-N-isopropylbenzamide]	++ (“++” means ≥33% and <66%)	< 1	+++ (“+++” means ≥66%)	< 50	≥ 50000	+++ (“+++” means ≥66%)	+++ (“+++” means ≥66%)	+ (“+” means <33%)
CC(C)N(CC(F)F)C(=O)c1cc(F)ccc1Oc1cncnc1N1CC2(CCN(C[C@@H]3CC[C@@H](NS(=O)(=O)N4CCOCC4)CO3)CC2)C1 [Compound 94, N-(2,2-Difluoroethyl)-5-fluoro-N-isopropyl-2-((4-(7-(((2S,5R)-5-(morpholine-4-sulfonamido)tetrahydro-2H-pyran-2-yl)methyl)-2,7-diazaspiro[3.5]nonan-2-yl)pyrimidin-5-yl)oxy)benzamide]	++ (“++” means ≥33% and <66%)	< 1	+++ (“+++” means ≥66%)	< 50				
